A word on the IC50: it is the point on the concentration scale where inhibition reaches its midpoint.

Consider 11 compounds from patent US11834453B2, “Substituted pyrimido[5,4-d]pyrimidines as HER2 inhibitors” (Array BioPharma Inc., priority 2020, dated 2023).

Data set [1] has as its target T1, BCRP (Homo sapiens (Human), UniProt Q9UNQ0). The following applies: dog, 2 h, 1 μM.
Method: (§1) BCRP transfected MDCKII cells (Assay 8) and BCRP transfected MDCKII canine Mdr1 knockout cells (Assay 9) were cultured and plated according to manufacturer's recommendations.
(§2) Both positive and negative controls were used to assess functionality of P-gp or BCRP efflux in the assays. Stock solutions for assay controls and the test article were prepared in DMSO for final test concentration of 1 μM. Final organic concentration in the assay was 1%. All dosing solutions contained 10 μM lucifer yellow to monitor MDCKII cell monolayer integrity.
(§3) For the apical to basolateral determination (A to B), 75 μL of the test article in transport buffer were added to the apical side of the individual transwells and 250 μL of basolateral media, without compound or lucifer yellow, were added to each well. For the basolateral to apical determination (B to A), 250 μL of test article in transport buffer were added to each well and 75 μL transport buffer, without compound or lucifer yellow, were added to each transwell. All tests were performed in triplicate, and each compound was tested for both apical to basolateral and basolateral to apical transport. The plates were incubated for 2 hours on a Lab-Line Instruments Titer Orbital Shaker (VWR, West Chester, PA) at 50 rpm and 37° C. with 5% CO2. All culture plates were removed from the incubator, 50 μL of media were removed from the apical and basolateral portion of each well, and added to 150 μL of 1 μM labetalol in 2:1 acetonitrile (ACN): H2O, v/v.
(§4) The plates were read using a Molecular Devices (Sunnyvale, CA) Gemini Fluorometer to evaluate the lucifer yellow concentrations at excitation/emission wavelengths of 425/535 nm. […] The plates were sealed, and the contents of each well analyzed by LC MS/MS. The compound concentrations were determined from the ratio of the peak areas of the compound to the internal standard (labetalol) in comparison to the dosing solution.
(§5) A MDS Sciex API 4000 (Applied Biosystems, Foster City, CA) mass spectrometer was used for detection of the analytes in the ion spray positive mode. Analyte responses were measured by multiple reaction monitoring (“MRM”) of transitions unique to each compound (the protonated precursor ion and selected product ions for each test article and m/z 329 to m/z 162 for labetalol, the internal standard.
(§6) The total run time, including re-equilibration, for a single injection was 1.2 minutes. […] The total run time, including re-equilibration, for a single injection was 0.61 minutes.
(§7) An efflux ratio is calculated from the mean apical to basolateral (A-B) Papp data and basolateral to apical (B-A) Papp data: Efflux ratio=Papp(B−A)/Papp(A−B)
In data set [2] the target is ErbB2 with Exon 20 YVMA insertion (HER2-YVMA) (Homo sapiens (Human), UniProt P04626, INS775YVMA). As to the kind of experiment: Cellular phosphorylation assay, constitutive ErbB2 phosphorylation (Y1196) in engineered NIH 3T3 cells, Assay 4. The class given is cell-based. An outline of the steps: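 In-cell Western in NIH 3T3 cells carrying ErbB2 exon 20 YVMA insertion, with no ligand stimulation. One hour compound exposure at 37 °C before fixation and anti-pY1196 plus GAPDH staining with dual-wavelength fluorescence. IC50 derived after GAPDH normalization.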

The target in data set [3] is ErbB2 WT (Homo sapiens (Human), UniProt P04626). The data set is described as follows: ErbB enzyme assay (CisBio HTRF KinEASE-TK), Assay 2. It is filed as biochemical. The method in brief:
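Readout is HTRF KinEASE-TK, using Sa-XL665 and cryptate antibody for 1 h at 22 °C, as percent of control between DMSO-only (100) and pre-quenched (0) reactions. The kinase reaction runs 30 min at 22 °C with 1 mM ATP and 250 nM biotinylated TK substrate, in HEPES pH 7.4 with MgCl2 and 2% DMSO.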
A general note: TR-FRET usually uses a lanthanide donor and a delayed reading to cut background.

Data set [4] has as its target ErbB2 insYVMA (HER2-YVMA, SEQ ID NO: 2) (Homo sapiens, UniProt P04626, INS775YVMA/P1170A). As to the kind of experiment: biochemical. The following applies: ErbB2 insYVMA enzyme assay.
Data set [5] has as its target EGFR (Homo sapiens (Human), UniProt P00533). The data set is described as follows: ErbB enzyme assay (CisBio HTRF KinEASE-TK), Assay 3. The class given is biochemical. The method in brief: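 IC50 was taken where a 4-parameter logistic fit crossed 50 percent of control (DMSO 100, pre-quenched 0), read by ratiometric HTRF. Reactions ran 30 min at 22 °C with 1 mM ATP and 250 nM TK-substrate biotin in pH 7.4 HEPES buffer with MgCl2, Triton X-100 and 2% DMSO.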

The target of data set [6] is T2, MDR1 (P-gp) (Homo sapiens (Human), UniProt P08183). The following applies: dog, MDCK-MDR1, 2 h, 1 μM.
Method: (§8) Both MDR1 transfected LLC-PK1 (Assay 6) and MDR1 transfected MDCKII canine Mdr1 knockout cells (Assay 7) were cultured and plated according to manufacturer's recommendations with the exception that the passage media for the MDR1 transfected LLC-PK1 cell line contained only 2% fetal bovine serum so as to extend passage time out to seven days.
as §2, §3
(§9) The plates were read using a Molecular Devices (Sunnyvale, CA) Gemini Fluorometer to evaluate the lucifer yellow concentrations at excitation/emission wavelengths of 425/535 nm. These values were accepted when found to be below 2% for apical to basolateral and 5% basolateral to apical flux across the MDR1-transfected LLC-PK1 or BCRP-transfected MDCKII cell monolayers. The plates were sealed, and the contents of each well analyzed by LC MS/MS. The compound concentrations were determined from the ratio of the peak areas of the compound to the internal standard (labetalol) in comparison to the dosing solution.
as §5, §6, §7
Data set [7] deals with T3, EGFR wild type (EGFR WT) (Homo sapiens (Human), UniProt P00533). As to the kind of experiment: Cellular phosphorylation assay, EGF-stimulated EGFR phosphorylation in engineered NIH 3T3 cells, Phospho-EGFR DuoSet IC ELISA, Assay 5. The class given is cell-based. An outline of the steps: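 Phospho-EGFR ELISA on lysates of engineered NIH 3T3 EGFR WT cells, IC50 derived from concentration curves. Cells plated at 20,000/well overnight, given compound dilutions 1 h at 37 °C, then rEGF 100 ng/ml for a further 10 min before lysis.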
In general terms: In an ELISA, binding on a coated surface is turned into a signal by an enzyme label.

In data set [8] the target is T2, MDR1 (P-gp). The following applies: pig, LLC-PK1, 2 h, 1 μM.
Data set [9] has as its target T2, MDR1 (P-gp). The data set is described as follows: MDR1 transfected MDCKII canine Mdr1 knockout permeability/efflux, Assay 7. The following applies: dog, MDCK-MDR1.
Method: as §8, §2, §3, §9, §5, §6, §7
Data set [10] addresses T3, EGFR wild type (EGFR WT). As to the kind of experiment: Cellular phosphorylation assay, EGF-stimulated EGFR phosphorylation (Y1068) in engineered NIH 3T3 cells, Odyssey imaging, Assay 5 (footnote 1). The class given is cell-based. The following applies: values marked with footnote 1. On the procedure: NIH 3T3 cells were engineered to express ErbB2 with Exon 20 YVMA insertion (HER2-YVMA (SEQ ID NO: 2); Assay 4) or EGFR wild type (EGFR WT; Assay 5, footnote 1) with constructs obtained from GenScript and grown in DMEM supplemented with 10% fetal bovine serum and 15 μg/ml blasticidin. Cells were plated in 96-well plates at 40,000 or 45,000 cells/well for HER2-YVMA (SEQ ID NO: 2) and EGFR WT assays, respectively, and allowed to attach overnight at 37° C./5% CO2. Serially diluted compounds were added to the plates for 1 hour at 37° C./5% CO2. EGFR WT cells were stimulated with 100 ng/ml rEGF for an additional 10 minutes at 37° C./5% CO2. After compound incubation, medium was removed from the cells, which were then fixed in 3.7% formaldehyde in PBS at room temperature for 20 minutes. Following a wash with PBS, cells were permeabilized with 100% methanol at room temperature for 10 minutes. Cells were then washed with PBS/0.05% Tween-20 and blocked with Odyssey blocking buffer (LI-COR Biosciences) for at least 1 hour at room temperature. Antibodies to phosphorylated ErbB2 (Y1196, Cell Signaling #6942) or phosphorylated EGFR (Y1068, Cell Signaling #3777) and GAPDH (Millipore #MAB374) were added to the cells in blocking buffer containing 0.05% azide and incubated overnight at 4° C. After washing with PBS/0.05° i° Tween-20, the cells were incubated with fluorescently labeled secondary anti-rabbit antibody (LiCOR, IRDye 800CW #926-32211) and anti-mouse antibody (Molecular Probes, Alexa Fluor 680 #A21058) for 1 hour at room temperature in the dark. Cells were then washed and analyzed for fluorescence at both wavelengths using the Odyssey Infrared Imaging System (LI-COR Biosciences). Phosphorylated ErbB2 and EGFR signal was normalized to GAPDH signal to generate curves and calculate IC50 values.

The target in data set [11] is T2, MDR1 (P-gp). The data set is described as follows: MDR1 transfected LLC-PK1 permeability/efflux, Assay 6. The following applies: pig, LLC-PK1, Assay 6 Pe Ratio, efflux ratio Papp(B-A)/Papp(A-B), MDR1 transfected LLC-PK1.
In data set [12] the target is T1, BCRP. As to the kind of experiment: BCRP transfected MDCKII permeability/efflux, Assay 8. It is filed as in vitro ADME. The following applies: dog, efflux ratio Papp(B-A)/Papp(A-B), read-out: Assay 8 Pe Ratio.
Method: as §1, §2, §3, §4, §5, §6, §7

Like-named read-outs stand apart in the source and are kept apart here. Bounds are passed on as bounds.

Sequence of ErbB2 WT (P04626 23-1255): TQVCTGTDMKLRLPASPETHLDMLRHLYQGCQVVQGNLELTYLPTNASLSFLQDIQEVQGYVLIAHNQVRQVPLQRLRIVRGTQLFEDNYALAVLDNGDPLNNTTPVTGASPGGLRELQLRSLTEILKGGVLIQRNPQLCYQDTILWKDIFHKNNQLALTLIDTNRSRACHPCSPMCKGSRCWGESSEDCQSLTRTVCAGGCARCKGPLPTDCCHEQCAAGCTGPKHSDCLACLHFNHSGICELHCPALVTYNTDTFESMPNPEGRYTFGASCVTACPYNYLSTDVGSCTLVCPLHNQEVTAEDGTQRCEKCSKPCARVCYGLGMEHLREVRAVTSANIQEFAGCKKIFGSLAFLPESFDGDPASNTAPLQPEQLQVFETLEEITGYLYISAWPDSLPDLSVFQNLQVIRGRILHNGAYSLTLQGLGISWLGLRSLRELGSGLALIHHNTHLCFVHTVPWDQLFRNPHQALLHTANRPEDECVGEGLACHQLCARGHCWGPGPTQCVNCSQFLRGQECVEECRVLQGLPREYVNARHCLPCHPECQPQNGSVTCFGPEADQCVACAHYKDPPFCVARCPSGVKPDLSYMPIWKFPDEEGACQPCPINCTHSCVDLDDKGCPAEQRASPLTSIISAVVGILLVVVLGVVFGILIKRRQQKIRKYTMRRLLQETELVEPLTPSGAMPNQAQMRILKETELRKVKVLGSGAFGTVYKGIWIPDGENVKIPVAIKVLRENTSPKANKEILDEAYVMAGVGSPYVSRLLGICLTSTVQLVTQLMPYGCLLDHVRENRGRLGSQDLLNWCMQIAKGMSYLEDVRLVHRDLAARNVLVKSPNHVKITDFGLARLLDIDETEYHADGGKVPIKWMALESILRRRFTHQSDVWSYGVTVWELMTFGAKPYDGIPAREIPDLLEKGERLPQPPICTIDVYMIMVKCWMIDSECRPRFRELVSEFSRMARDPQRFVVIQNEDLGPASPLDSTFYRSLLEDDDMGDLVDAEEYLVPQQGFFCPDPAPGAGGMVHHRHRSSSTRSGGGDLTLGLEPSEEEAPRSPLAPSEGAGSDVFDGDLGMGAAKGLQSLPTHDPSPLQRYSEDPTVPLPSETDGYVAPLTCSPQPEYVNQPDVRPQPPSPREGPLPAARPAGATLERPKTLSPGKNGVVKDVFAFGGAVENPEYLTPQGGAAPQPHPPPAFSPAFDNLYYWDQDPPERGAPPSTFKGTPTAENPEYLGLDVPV
Sequence of ErbB2 with Exon 20 YVMA insertion (HER2-YVMA) (P04626 other isoform, or with tags, fused parts or gaps ins YVMA behind 775): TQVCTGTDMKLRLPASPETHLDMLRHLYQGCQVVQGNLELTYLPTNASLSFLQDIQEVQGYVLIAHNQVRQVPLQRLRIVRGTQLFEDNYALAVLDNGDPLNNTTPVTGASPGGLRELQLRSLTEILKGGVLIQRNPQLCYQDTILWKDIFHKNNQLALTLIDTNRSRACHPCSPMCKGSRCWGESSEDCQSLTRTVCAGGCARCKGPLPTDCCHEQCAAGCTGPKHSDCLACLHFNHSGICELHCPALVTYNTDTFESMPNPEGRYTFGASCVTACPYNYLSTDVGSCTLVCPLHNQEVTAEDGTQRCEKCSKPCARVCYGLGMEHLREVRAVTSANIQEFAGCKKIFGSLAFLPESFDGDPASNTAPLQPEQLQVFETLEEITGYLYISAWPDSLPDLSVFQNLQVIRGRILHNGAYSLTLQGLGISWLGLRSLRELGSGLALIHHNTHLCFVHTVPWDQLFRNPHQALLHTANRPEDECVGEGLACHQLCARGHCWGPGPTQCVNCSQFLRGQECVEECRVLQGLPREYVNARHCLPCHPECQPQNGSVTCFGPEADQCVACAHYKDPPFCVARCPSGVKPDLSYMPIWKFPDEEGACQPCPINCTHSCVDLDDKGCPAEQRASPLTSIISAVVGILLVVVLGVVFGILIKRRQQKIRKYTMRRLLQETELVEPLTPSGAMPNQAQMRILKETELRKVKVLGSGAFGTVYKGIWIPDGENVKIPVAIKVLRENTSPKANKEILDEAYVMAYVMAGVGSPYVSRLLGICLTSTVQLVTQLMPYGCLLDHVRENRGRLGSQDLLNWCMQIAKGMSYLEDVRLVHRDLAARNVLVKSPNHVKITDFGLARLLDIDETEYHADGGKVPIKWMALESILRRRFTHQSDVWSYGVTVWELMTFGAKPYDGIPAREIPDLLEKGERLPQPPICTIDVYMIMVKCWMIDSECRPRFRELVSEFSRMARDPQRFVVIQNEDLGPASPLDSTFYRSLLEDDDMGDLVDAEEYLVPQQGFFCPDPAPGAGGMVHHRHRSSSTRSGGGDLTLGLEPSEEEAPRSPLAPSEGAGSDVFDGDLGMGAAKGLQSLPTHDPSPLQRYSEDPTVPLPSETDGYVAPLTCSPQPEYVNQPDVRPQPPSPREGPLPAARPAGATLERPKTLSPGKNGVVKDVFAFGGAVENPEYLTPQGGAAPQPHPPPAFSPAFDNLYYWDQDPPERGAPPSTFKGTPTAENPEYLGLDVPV
T1 sequence (Q9UNQ0 whole entry): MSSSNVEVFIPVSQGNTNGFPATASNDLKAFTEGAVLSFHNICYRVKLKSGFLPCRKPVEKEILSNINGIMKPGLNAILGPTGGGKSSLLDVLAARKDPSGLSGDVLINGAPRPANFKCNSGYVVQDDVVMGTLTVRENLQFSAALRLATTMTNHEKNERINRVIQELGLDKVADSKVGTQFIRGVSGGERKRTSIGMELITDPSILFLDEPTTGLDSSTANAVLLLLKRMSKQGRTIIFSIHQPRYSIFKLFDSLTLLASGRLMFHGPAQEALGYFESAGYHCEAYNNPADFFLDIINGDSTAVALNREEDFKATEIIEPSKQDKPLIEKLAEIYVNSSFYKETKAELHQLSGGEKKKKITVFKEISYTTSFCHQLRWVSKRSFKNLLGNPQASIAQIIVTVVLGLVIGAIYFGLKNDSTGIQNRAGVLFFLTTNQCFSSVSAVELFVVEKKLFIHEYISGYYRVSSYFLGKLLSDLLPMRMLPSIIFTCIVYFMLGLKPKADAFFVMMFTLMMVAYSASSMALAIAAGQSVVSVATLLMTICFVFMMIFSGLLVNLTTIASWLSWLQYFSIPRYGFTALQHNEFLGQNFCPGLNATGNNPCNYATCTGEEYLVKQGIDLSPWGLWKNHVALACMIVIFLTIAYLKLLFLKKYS
T2 sequence (P08183 whole entry): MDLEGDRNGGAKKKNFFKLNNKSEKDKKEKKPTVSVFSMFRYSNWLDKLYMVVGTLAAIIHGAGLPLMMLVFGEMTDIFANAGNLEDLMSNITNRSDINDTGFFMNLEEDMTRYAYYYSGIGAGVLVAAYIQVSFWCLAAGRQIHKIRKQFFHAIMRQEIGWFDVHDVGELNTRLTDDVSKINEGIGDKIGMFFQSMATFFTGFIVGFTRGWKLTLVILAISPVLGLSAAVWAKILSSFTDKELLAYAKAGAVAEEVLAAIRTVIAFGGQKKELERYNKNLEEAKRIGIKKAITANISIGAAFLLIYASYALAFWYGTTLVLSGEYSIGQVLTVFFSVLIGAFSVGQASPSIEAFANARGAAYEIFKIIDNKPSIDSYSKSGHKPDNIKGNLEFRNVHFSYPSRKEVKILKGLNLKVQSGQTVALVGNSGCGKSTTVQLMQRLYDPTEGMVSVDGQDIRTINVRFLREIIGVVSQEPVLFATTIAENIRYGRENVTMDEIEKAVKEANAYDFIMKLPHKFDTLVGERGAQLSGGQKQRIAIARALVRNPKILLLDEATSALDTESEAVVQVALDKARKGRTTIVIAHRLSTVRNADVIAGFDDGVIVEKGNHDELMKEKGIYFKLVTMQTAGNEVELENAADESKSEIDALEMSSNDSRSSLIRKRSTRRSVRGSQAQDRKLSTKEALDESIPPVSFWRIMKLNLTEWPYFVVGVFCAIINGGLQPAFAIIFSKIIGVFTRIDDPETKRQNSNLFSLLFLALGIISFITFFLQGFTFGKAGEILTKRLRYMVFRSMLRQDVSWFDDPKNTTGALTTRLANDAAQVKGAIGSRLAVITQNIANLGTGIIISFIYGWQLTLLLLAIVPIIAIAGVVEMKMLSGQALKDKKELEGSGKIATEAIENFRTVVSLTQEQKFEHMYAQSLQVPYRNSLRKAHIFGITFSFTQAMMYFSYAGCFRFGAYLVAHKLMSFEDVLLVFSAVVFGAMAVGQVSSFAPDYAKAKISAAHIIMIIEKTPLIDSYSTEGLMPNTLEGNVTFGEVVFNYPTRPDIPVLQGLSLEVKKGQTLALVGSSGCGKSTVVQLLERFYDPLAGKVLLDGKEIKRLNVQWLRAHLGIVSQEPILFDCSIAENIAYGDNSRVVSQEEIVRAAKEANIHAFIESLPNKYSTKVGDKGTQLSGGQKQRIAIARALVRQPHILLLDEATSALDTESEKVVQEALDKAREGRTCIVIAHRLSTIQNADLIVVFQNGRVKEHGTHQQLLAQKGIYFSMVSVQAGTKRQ

As to `Cc1cc(Nc2ncnc3cnc(N4[C@H]5CC[C@@H]4[C@H](O)C5)nc23)ccc1Oc1ccc2c(c1)ncn2C` (racemic) [Example 104, ±(1R,2R,4S)-7-(8-((3-methyl-4-((1-methyl-1H-benzo[d]imidazol-5-yl)oxy)phenyl)amino)pyrimido[5,4-d]pyrimidin-2-yl)-7-azabicyclo[2.2.1]heptan-2-ol], in data set [1], the “Assay 9 Pe Ratio” value is 16.0. Moreover, the IC50 turned out to be 31.8 nM in data set [2]; 18.2 nM in data set [3]; 18.6 nM in data set [4] (read-out: Assay 1 IC50); 4680 nM in data set [5]; 5000 nM in data set [7]. The “Assay 7 Pe Ratio” value in [6] is 1.4.

Regarding `Cc1cc(Nc2ncnc3cnc(N4[C@H]5CC[C@@H]4[C@@H](O)C5)nc23)ccc1Oc1ccc2c(c1)ncn2C` (racemic) [Example 105, ±(1R,2S,4S)-7-(8-((3-methyl-4-((1-methyl-1H-benzo[d]imidazol-5-yl)oxy)phenyl)amino)pyrimido[5,4-d]pyrimidin-2-yl)-7-azabicyclo[2.2.1]heptan-2-ol], in [1], the “Assay 9 Pe Ratio” value is on record as 8.6. Besides, the IC50 in [2] amounted to 39 nM; in data set [3] it was 48.5 nM; in data set [4] (read-out: Assay 1 IC50), 56.7 nM; in data set [5], 10000 nM; in data set [7], 5000 nM. Also, the “Assay 7 Pe Ratio” value in [6] was 2.0.

As for `Cc1cc(Nc2ncnc3cnc(N4CCC45CCOC5)nc23)ccc1Oc1ccc2c(c1)ncn2C` (racemic) [Example 111, rac-(R)—N-(3-methyl-4-((1-methyl-1H-benzo[c]imidazol-5-yl)oxy)phenyl)-6-(6-oxa-1-azaspiro[3.4]octan-1-yl)pyrimido[5,4-d]pyrimidin-4-amine], the “Assay 6 Pe Ratio” value in [8] is reported as 1.3. In [1], the “Assay 9 Pe Ratio” value turned out to be 1.6. In addition, the IC50 in data set [2] turned out to be 13 nM; in data set [3], 24 nM; in data set [4] (read-out: Assay 1 IC50), 28.2 nM; in data set [5], 3530 nM; in [7], 5000 nM. In data set [6], the “Assay 7 Pe Ratio” value came to 1.7.

As for `CSc1ncc2ncnc(Nc3ccc(Oc4ccc5csnc5c4)c(C)c3)c2n1` [Example 11, N-(4-(benzo[c]isothiazol-6-yloxy)-3-methylphenyl)-6-(methylthio)pyrimido[5,4-d]pyrimidin-4-amine 2,2,2-trifluoroacetate], the efflux ratio at 2 h, 1 μM in [9] and in data set [11] was 0.7 throughout. For the same compound, the IC50 came to 95.1 nM in data set [2]; 97.4 nM in data set [3]; 54.4 nM in data set [4] (read-out: Assay 1 IC50); 925 nM in data set [5]; 5000 nM in data set [10].

Regarding `Cc1cc(Nc2ncnc3cnc(NC4CCC4)nc23)ccc1Oc1ccc2c(c1)ncn2C` [Example 14, N2-cyclobutyl-N8-(3-methyl-4-((1-methyl-1H-benzo[d]imidazol-5-yl)oxy)phenyl)pyrimido[5,4-d]pyrimidine-2,8-diamine], the efflux ratio at 2 h, 1 μM in [12] was determined as 0.9; in data set [11] it was 1.3. Moreover, the IC50 in data set [2] was 37 nM; in data set [3], 85.9 nM; in data set [4] (read-out: Assay 1 IC50), 56.2 nM; in data set [5], at least 10000 nM; in data set [7], at least 5000 nM.

On to `Cc1cc(Nc2ncnc3cnc(NCC4CC4)nc23)ccc1Oc1ccc2c(c1)ncn2C` [Example 20, N2-(cyclopropylmethyl)-N8-(3-methyl-4-((1-methyl-1H-benzo[d]imidazol-5-yl)oxy)phenyl)pyrimido[5,4-d]pyrimidine-2,8-diamine], for which the results for the efflux ratio at 2 h, 1 μM in data set [12] and in data set [11] were 0.7 and 1.9, respectively. Besides, the IC50 was 44.8 nM in data set [2]; 130 nM in data set [3]; 66.1 nM in [4] (read-out: Assay 1 IC50); at least 10000 nM in data set [5]; at least 5000 nM in [7].

As to `Cc1cc(Nc2ncnc3cnc(N(C)C)nc23)ccc1Oc1ccc2csnc2c1` [Example 49, N8-(4-(benzo[c]isothiazol-6-yloxy)-3-methylphenyl)-N2,N2-dimethylpyrimido[5,4-d]pyrimidine-2,8-diamine 2,2,2-trifluoroacetate], the efflux ratio at 2 h, 1 μM in data set [12] is 5.1; in data set [11], 1.7. For the same compound, the IC50 in data set [2] was 132 nM; in [3], 241 nM; in data set [4] (read-out: Assay 1 IC50), 55.3 nM; in data set [5], 2250 nM; in data set [7] it was at least 5000 nM.

Consider `Cc1cc(Nc2ncnc3cnc(N4CCOCC4)nc23)ccc1Oc1ccc2scnc2c1.O=C(O)C(F)(F)F` [Example 82, N-(4-(benzo[d]thiazol-5-yloxy)-3-methylphenyl)-6-morpholinopyrimido[5,4-d]pyrimidin-4-amine 2,2,2-trifluoroacetate], for which the efflux ratio at 2 h, 1 μM in [12] is 1; in data set [11], 1.3. In addition, the IC50 in data set [2] is 54.7 nM; in [3], 204 nM; in data set [4] (Assay 1 IC50 (nM)), 47 nM; in [5], 1220 nM; in data set [7], at least 5000 nM.

As for `Cc1c(Oc2ccc3c(c2)ncn3C)ccc(Nc2ncnc3cnc(N4CCOCC4)nc23)c1F` [Example 263], the efflux ratio at 2 h, 1 μM stood at 1.5 in [12] and 0.9 in [11]. Also, the half-maximal inhibitory concentration (IC50) is 16.1 nM in [2]; 137 nM in data set [3]; 57.6 nM in data set [4] (read-out: Assay 1 IC50); at least 10000 nM in [5]; at least 5000 nM in [7].

For the compound `Cc1cc(Nc2ncnc3cnc(NC4(C)CC4)nc23)ccc1Oc1ccc2c(c1)ncn2C` [Example 268], the figures for the efflux ratio at 2 h, 1 μM in data set [12] and in data set [11] were 1.1 and 1.5, respectively. Further, the IC50 was 39 nM in data set [2]; 93.7 nM in [3]; 82 nM in data set [4] (read-out: Assay 1 IC50); at least 10000 nM in data set [5]; at least 5000 nM in [7].

Take `Cc1cc(Nc2ncnc3cnc(N(C)C)nc23)ccc1Oc1ccc2scnc2c1` [Example 271]: the efflux ratio at 2 h, 1 μM in data set [12] is 0.9; in data set [11] it was 1.8. The half-inhibitory concentration (IC50) in data set [2] worked out at 30.9 nM; in data set [3], 145 nM; in data set [4] (read-out: Assay 1 IC50), 42.2 nM; in data set [5], 1260 nM; in data set [7], 3080 nM.
